Assay results reported in patent US9096591B2, “Tetracyclic compounds” (Medivation Technologies, Inc., priority 2007, dated 2015).
“And” between values parts separate entries of the source, which are not always exact repeats. Equal entries are not always repeated.

Columns and labels:
[1] = target: T1, human recombinant serotonin 5-HT2A receptor (Homo sapiens, UniProt P28223); experiment: Serotonin 5-HT2A agonist/antagonist functional assay (calcium fluorescence, HEK-293); type: cell-based; conditions: antagonist mode
T1 construct: expressed in transfected cells; host or cells: HEK-293 cells
T1 sequence (P28223 whole entry): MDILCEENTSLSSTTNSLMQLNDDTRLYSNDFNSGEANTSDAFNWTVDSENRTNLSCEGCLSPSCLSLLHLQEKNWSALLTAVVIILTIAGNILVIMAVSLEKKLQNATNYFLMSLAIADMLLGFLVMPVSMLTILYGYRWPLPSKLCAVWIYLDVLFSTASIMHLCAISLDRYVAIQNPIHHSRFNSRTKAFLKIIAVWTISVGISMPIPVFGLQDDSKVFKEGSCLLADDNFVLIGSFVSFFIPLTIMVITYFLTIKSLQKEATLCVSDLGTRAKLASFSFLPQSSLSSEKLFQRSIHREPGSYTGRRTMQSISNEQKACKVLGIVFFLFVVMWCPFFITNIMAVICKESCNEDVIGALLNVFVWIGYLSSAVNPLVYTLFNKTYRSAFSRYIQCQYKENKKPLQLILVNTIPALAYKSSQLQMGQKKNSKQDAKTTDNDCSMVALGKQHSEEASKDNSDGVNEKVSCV
Description: To determine for agonist or antagonist activity of compounds of the invention in functional assays, human recombinant serotonin 5-HT2A receptor expressed in human embryonic kidney (HEK-293) cells (Jerman J C, Brough S J, Gager T, Wood M, Coldwell M C, Smart D and Middlemiss D N. Eur J Pharmacol, 414: 23-30, 2001) was used. Cells were suspended in DMEM buffer, and distributed in microplates. A cytoplasmic calcium fluorescent indicator which varies proportionally to the free cytosolic Ca^2+ ion concentration was mixed with probenicid in HBSS buffer complemented with 20 mM Hepes (pH 7.4), added into each well and equilibrated with the cells for 30 min at 37° C. followed by 30 min at 22° C. […]
The standard reference antagonist was ketanserin, which was tested in each experiment at several concentrations to generate a concentration-response curve from which its IC50 value was calculated.

C57BL/6 mice = experiment: Recognition of a new location of the known object (spatial memory); type: in vivo
Description: The object recognition test is based on the fact that mice and rats spontaneously explore new object or location of a known object a lot longer than the know object or a known location of an object. This test was first used in rats (Ennaceur A., Delacour J., 1988). It was further shown by others that this type of memory testing is suitable for mice (Dodart J. et al. 1997, Messier C. 1997, Pittenger C. et al., 2002, Ryabinin A. et al., 2002, Sargolini F. et al., 2003). The method of recognition of an object is divided in two stages. The first one involves the recognition of a new location of a known object, which is used to assess spatial memory. The second one includes a test for recognition of a new in order to evaluate the non-spatial memory (Gaffan D., 1992, Kolb B. et al., 1994, Steckler T., 1998). Currently, both are widely used to determine the effectiveness of newly synthesized drugs on memory.
All experiments were carried out on 3-4 months old males (C57BL/6 line) 22-26 g weight with 10 animals in each group. All animals were kept in the animal facility (5 animals per cage) on the 12×12 hours light cycle (8 am-8 pm) with free access to food and water. […] Brown glass vials were used as test objects which are 2.7 cm in diameter (1.1 inch) and 5.5 cm high (2.2 inch). All vials were treated with 85% ethanol 2-3 minutes before each testing. Animals were placed in the center of the chamber.
Dimebon and compounds of the invention were dissolved in distilled water and administered orally at 0.05 mL per 10 g of animal mass 1 hour before the training exercise. All animals in the control group were treated with the equivalent dose of vehicle. The testing was performed 48 hours after the training exercise because animals forget the location of the object during the 48-hour resting time.
On the first day animals were brought in the testing room so that they could adapt to the testing environment for 20-30 min. Subsequently, each animal was placed in the empty testing chamber for 10 min, which was wiped with alcohol beforehand. After that animals were transferred back into the […] and returned to the animal facility.
The next day after habituation, the animals were brought back into the testing room where they were weighed and injected with the testing compound. An hour after injection, each animal was placed into the testing camber which had two identical objects that were positioned 14.5 cm (5.7 inches) from the corners on the diagonal. The training exercise lasted for 15 min for each animal. Subsequently, each animal was placed back into the cage and returned into the animal house.
The testing procedure was performed 48 hours after the training exercise. During the procedure two objects were used as in the training exercise. […] The amount of time that each animal spent on exploration each object was determined with 0.1 sec accuracy using two electronic stopwatches for total of 10 min. […] The survey of the object was counted as positive if the nose of an animal was pointed within 2 cm or if the animal was touching the objected directly with the nose.
Due to fair differences in the amount of time that each animal surveyed the object, the percentage of the survey time for each animal was determined using this formula: tNL/(tFL+tNL)×100 (where t is time, NL—new location(object), and FL—familiar location(object)). […] Subsequently, the statistical significance was analyzed using a Student's t-test criteria.

SMILES | % of Control Agonist Response, 1st Assay ([1]; test concentration 1.00E−07 M) | % of Control Agonist Response, 2nd Assay ([1]; test concentration 1.00E−07 M) | % of Control Agonist Response, Mean ([1]; test concentration 1.00E−07 M) | % of Control Agonist Response, Mean ([1]; test concentration 3.00E−06 M) | % of Control Agonist Response, 1st Assay ([1]; test concentration 3.00E−07 M) | % of Control Agonist Response, 2nd Assay ([1]; test concentration 3.00E−07 M) | % of Control Agonist Response, Mean ([1]; test concentration 3.00E−07 M) | % of Control Agonist Response, 1st Assay ([1]; test concentration 3.00E−08 M) | % of Control Agonist Response, 2nd Assay ([1]; test concentration 3.00E−08 M) | % of Control Agonist Response, Mean ([1]; test concentration 3.00E−08 M) | % of Control Agonist Response, 1st Assay ([1]; test concentration 1.00E−06 M) | % of Control Agonist Response, 2nd Assay ([1]; test concentration 1.00E−06 M) | % of Control Agonist Response, Mean ([1]; test concentration 1.00E−06 M) | % of Control Agonist Response, 1st Assay ([1]; test concentration 3.00E−06 M) [%] | % of Control Agonist Response, 2nd Assay ([1]; test concentration 3.00E−06 M) [%] | effect on memory in the recognition test of a known object in a new location (C57BL/6 mice; 0.05 mg/kg, 0.5 mg/kg, and 1 mg/kg) | time exploring the object in a new location, % of the total time (C57BL/6 mice; 0.1 mg/kg) [%] | time exploring the object in the known position, % of the total time (C57BL/6 mice; 0.1 mg/kg) [%]
CN1CCc2c(c3cc(Cl)ccc3n2CCc2ccccc2)C1 [Compound 36, 8-chloro-2,3,4,5-tetrahydro-2-methyl-5-phenethyl-1H-pyrido[4,3-b]indole] | 111% and 100% and 105% | 102% and 106% and 115% | 106.4% and 103% and 109.9% | 5.3% and 9.7% and 0.4% | 92% and 109% | 105% and 98% and 97% | 98.8% and 94.8% and 102.8% | 109% | 108% | 108.7% |  |  |  |  |  |  |  | 
COc1ccc(CCn2c3c(c4cc(C)ccc42)CN(C)CC3)cc1 [Compound 247] | 117% and 93% | 116% and 94% and 95% | 116.5% and 93.5% and 93.9% | −3.2% |  | 76% and 72% and 38% |  | 122% and 103% | 120% and 108% and 111% | 121.3% and 104.5% and 107% | −4% and −2% and 2% | 0% and 3% | −1.7% and 0.3% and 0.7% | −4 | −3 |  |  | 
CN1CCc2c(c3ccccc3n2CCc2noc(-c3ccccc3)n2)C1 [Compound C4-1] |  |  |  |  |  |  |  |  |  |  |  |  |  |  |  | not significantly different from the control group | 61.3±6.9 | 38.7±6.9
